Patent US20230320362A1, “COMPOSITION AND METHOD FOR WEED AND GRASS CONTROL” (United Industries Corporation, priority 2022, published 2023)

Tested on: weed or grass
Assay: not given
Conditions: Table 1 Notes; cited from earlier work
For `CP(=O)(O)CCC(N)C(=O)O` (stereo not drawn) [Glufosinate], the “residual activity (in words)” value is given as “Kills shoots and roots, short residual activity”. For `CCCCCCCCC(=O)O` [Pelargonic acid], the “residual activity (in words)” value is given as “No residual activity”. For `CCOC(=O)COc1cc(-n2ncc(C(F)(F)F)c(C)c2=O)c(F)cc1Cl` [Flufenpyr-ethyl], the “residual activity (in words)” value is listed as “No residual activity”. In the case of Oxadiargyl, the “residual activity (in words)” value is given as “Pre-emergent active”. For `COC(=O)c1cc(Oc2ccc(Cl)cc2Cl)ccc1[N+](=O)[O-]` [Bifenox], the “residual activity (in words)” value is given as “Six to eight weeks residual activity”. In the case of `c1cc[n+]2c(c1)-c1cccc[n+]1CC2` [Diquat], the “residual activity (in words)” value is listed as “No residual activity”. In the case of `CCOC(=O)C(Cl)Cc1cc(-n2nc(C)n(C(F)F)c2=O)c(F)cc1Cl` (stereo not drawn) [Carfentrazone-ethyl], the “residual activity (in words)” value is given as “No residual activity”. In the case of `Cc1ccc(C(=O)COc2c(C(=O)c3ccc(Cl)c(C)c3Cl)c(C)nn2C)cc1` [Benzafenap], the residual activity is given as 38 days residual activity. In the case of `O=C(O)c1cc(Oc2ccc(C(F)(F)F)cc2Cl)ccc1[N+](=O)[O-]` [Acifluorfen], the “residual activity (in words)” value is given as “No residual activity”. In the case of `CCCCCOC(=O)COc1cc(N2C(=O)C3=C(CCCC3)C2=O)c(F)cc1Cl` [Flumiclorac pentyl], the “residual activity (in words)” value is given as “No residual activity”. In the case of `CC(C)Oc1cc(-n2nc(C(C)(C)C)oc2=O)c(Cl)cc1Cl` [Oxadiazon], the residual activity is listed as “Moderate residual activity (2 months)”. For `C=CCOC(=O)C(C)(C)OC(=O)c1cc(-n2c(=O)cc(C(F)(F)F)n(C)c2=O)ccc1Cl` [Butafenacil], the “residual activity (in words)” value is given as “No residual activity”. For `CS(=O)(=O)c1ccc(C(=O)C2=C(Sc3ccccc3)C3CCC(C3)C2=O)c(Cl)c1` (stereo not drawn) [Benzobicyclon], the residual activity is listed as 14 days residual activity. In the case of `Nc1c([N+](=O)[O-])ccc(Oc2ccccc2)c1Cl` [Aclonifen], the “residual activity (in words)” value is given as “Moderate residual activity”. In the case of `CS(=O)(=O)c1cc(C(F)(F)F)ccc1C(=O)c1cnoc1C1CC1` [Isoxaflutole], the “residual activity (in words)” value is listed as “No residual activity”. In the case of `CS(=O)(=O)c1ccc(C(=O)C2C(=O)CCCC2=O)c(Cl)c1COCC(F)(F)F` [Tembotrione], the residual activity is listed as 14 days residual activity. For `CCCCCCCCC(=O)O.N` [Ammonium nonanoate], the “residual activity (in words)” value is listed as “Top kill, no residual activity”. For Capric/decanoate acid of salt thereof, the “residual activity (in words)” value is listed as “No residual activity”. In the case of `CC(C)C1(C)N=C(c2ncccc2C(=O)O)NC1=O` (stereo not drawn) [Imazapyr], the “residual activity (in words)” value is listed as “Four months residual activity”. In the case of `CS(=O)(=O)c1ccc(C(=O)C2C(=O)CCCC2=O)c(Cl)c1` [Sulcotrione], the “residual activity (in words)” value is given as “No residual activity”. For `CC(C)N(C(=O)n1cnn(-c2ccc(Cl)cc2Cl)c1=O)c1ccc(F)cc1F` [Ipfencarbazone], the residual activity is listed as 70 days residual activity. For `CC(C)N(C)S(=O)(=O)NC(=O)c1cc(-n2c(=O)cc(C(F)(F)F)n(C)c2=O)c(F)cc1Cl` [Saflufenacil], the “residual activity (in words)” value is given as “No residual activity”. For `CCCCCCCC(=O)O` [Caprylic/octanoic acid], the “residual activity (in words)” value is given as “No residual activity”. In the case of `CCOC(=O)COc1cc(-c2nn(C)c(OC(F)F)c2Cl)c(F)cc1Cl` [Pyraflufen-ethyl], the “residual activity (in words)” value is given as “Burndown activity with no residual”. For `CCc1cnc(C2=NC(C)(C(C)C)C(=O)N2)c(C(=O)O)c1` (stereo not drawn) [Imazethapyr], the “residual activity (in words)” value is listed as “Two to three months residual”. In the case of `CC(C)=C1OC(=O)N(c2cc(OC3CCCC3)c(Cl)cc2F)C1=O` [Pentoxazone], the “residual activity (in words)” value is given as “No residual activity”. In the case of `CCOc1cc(Oc2ccc(C(F)(F)F)cc2Cl)ccc1[N+](=O)[O-]` [Oxyfluorfen], the residual is given as “Kills shoots and roots, 30 d residual”. For `CS(=O)(=O)NC(=O)c1cc(Oc2ccc(C(F)(F)F)cc2Cl)ccc1[N+](=O)[O-]` [Fomesafen], the residual activity is given as 12-month residual activity. For `Cc1cnc(C2=NC(=O)C(C)(C(C)C)N2)c(C(=O)O)c1` (stereo not drawn) [Imazapic], the “residual activity (in words)” value is listed as “Four months residual activity”. In the case of `Cc1c(C(=O)c2cnn(C)c2O)ccc(S(C)(=O)=O)c1C1=NOCC1` [Topramezone], the residual activity is listed as 14 days residual activity. For `C#CCN1C(=O)COc2cc(F)c(N3C(=O)C4=C(CCCC4)C3=O)cc21` [Flumioxazin], the “residual activity (in words)” value is listed as “One to two weeks residual”. For `CCOC(=O)C(C)OC(=O)c1cc(Oc2ccc(C(F)(F)F)cc2Cl)ccc1[N+](=O)[O-]` (stereo not drawn) [Lactofen], the residual activity is given as “Very short residual activity (2-3 weeks)”. In the case of `CCOC(=O)/C(Cl)=C/c1cc(N2C(=O)C3=C(CCCC3)C2=O)ccc1Cl` [Cinidon-ethyl], the “residual activity (in words)” value is given as “No residual activity”. For `COC(=O)CCNC(=O)C(C)Sc1cc(-n2c(=O)cc(C(F)(F)F)n(C)c2=O)c(F)cc1Cl` (stereo not drawn) [Tiafenacil], the “residual activity (in words)” value is listed as “Burndown with no residual activity”. For `C#CCN1C(=O)C(F)(F)Oc2cc(F)c(-n3c(=O)n(C)c(=S)n(C)c3=O)cc21` [Trifludimoxazin], the residual activity is listed as “Short residual activity of 40 days”. For `Cc1nn(C)c(OCC(=O)c2ccccc2)c1C(=O)c1ccc(Cl)cc1Cl` [Pyrazoxyfen], the residual activity is given as 4-15 days residual activity. In the case of `CS(=O)(=O)c1ccc(C(=O)C2C(=O)CCCC2=O)c([N+](=O)[O-])c1` [Mesotrione], the residual activity is listed as “Limited residual activity (6-15 days)”. For `CCOC(=O)COC(=O)c1cc(Oc2ccc(C(F)(F)F)cc2Cl)ccc1[N+](=O)[O-]` [Fluoroglycofen-ethyl], the “residual activity (in words)” value is listed as “No residual activity”. In the case of `COC(=O)CSc1cc(/N=c2\sc(=O)n3n2CCCC3)c(F)cc1Cl` [Fluthiacet-methyl], the “residual activity (in words)” value is given as “No residual activity”.

Tested on: Crimson Clover, Annual Rye Grass, Rescue Grass
Assay: Field experiment: early burndown and herbicidal efficacy of glufosinate + diquat compositions (FIGS. 3A-3C)
Format: in vivo
Conditions: burndown agent combined with glufosinate
Excerpt: “Herbicidal efficacy” or “herbicidal effectiveness,” as used herein, refers to any observable measure of control of weed or grass growth, which can include one or more of the actions of (1) killing, (2) inhibiting growth, reproduction or proliferation, and (3) removing, destroying, or otherwise diminishing the occurrence and activity of weeds or grasses. The herbicidal effectiveness data set forth herein report “control” as a percentage following a standard procedure in the art which reflects a visual assessment of plant mortality and growth reduction by comparison with untreated plants, made by technicians specially trained to make and record such observations. In all cases, a single technician makes all assessments of percent control within any one experiment or trial.
Various examples and comparatives examples of the weed control compositions and RTU solutions were prepared according to Table 2. The RTU solutions were applied to test fields with various types of weeds and grasses, and the burndown effect and/or the long-term efficacy of the test RTU solutions are observed and compared. Equipment, sprayer, and selected operating conditions for application of the RTU compositions to the test areas are provided in Table 3.
All field experiments were set in 1 m^2 plots replicated four times in a randomized complete block design with appropriate industry standards and untreated controls. The example compositions and comparative example compositions according to Table 2 were tested in the field experiments. […] Plots were sprayed once, and then assessed for speed to visible activity, percent (%) weed control, and percent residual control over time to determine burndown activity, speed to kill, extended control and residual pre-emergent activity.
With `c1cc[n+]2c(c1)-c1cccc[n+]1CC2` [Diquat] the “burndown compared to glufosinate alone” value was “enhanced burndown compared to glufosinate alone”. For `CCCCCCCCC(=O)O.N` [Ammonium nonanoate], the “burndown compared to glufosinate alone” value was “enhanced burndown compared to glufosinate alone” and the “effectiveness as burndown agent, ammonium nonanoate versus Diquat” value was “superior effectiveness compared to Diquat”.
